Results from patent US20250302712A1, “COMPOSITION FOR SKIN MOISTURIZING COMPRISING PHENYLLACTIC ACID” (AMOREPACIFIC CORPORATION, priority 2024, published 2025).

Test system: HAS2 (Hyaluronan synthase 2)
Assay: HAS2 gene expression in blue light irradiated human keratinocytes (HaCaT), Taqman real-time PCR
Format: cell-based
Conditions: blue light 410 nm 120 J/cm^2, PLA 50 μM (8.3 ppm)
Description: The Lactobacillus plantarum APsulloc 331261 (KCCM11179P) strain used in Experimental Example above was inoculated into a medium containing MRS broth, phenylalanine at a concentration of 40 mM, and calcium carbonate at a concentration of 1%, and the culture medium was cultured for 3 days. The cells were removed by centrifugation, and 1 liter was prepared. An equal amount of ethyl acetate was added to the prepared culture medium and the reaction was performed, and the water layer and the ethyl acetate layer of the culture medium were waited for separation. The separated ethyl acetate layer was heated and distilled, and an appropriate amount of water (about 100 mL) was added to the remaining concentrate to prepare a Lactobacillus culture extract containing phenyllactic acid. […]
In addition, the hyaluronic acid production promotion effect of the culture medium of Lactobacillus strains prepared as shown in Table 1 was compared. The strains Lactobacillus plantarum APsulloc 331261 (KCCM11179P), Lactobacillus plantarum KCTC3108, Lactobacillus acidophilus KCTC3164, and Lactobacillus sakei KTCT3603 were inoculated into MRS broth, and 0.5% of the culture medium static-cultured at 35° C. for 3 days was added, and the gene expression amount of HAS2 (Hyaluronan synthase 2) was measured in the same manner as above.

O=C(O)C(O)Cc1ccccc1 (stereo not shown) [PLA, Phenyllactic acid] was tested, and the HAS2 gene expression was “significantly improved the decrease in HAS2 gene expression caused by blue light”.
